Marks after values point to notes of the source that are not given here.
Key:
Assay type in all cases: in vivo
[1] = test system: wild-type C. elegans (N2); test: C. elegans N2 lifespan assay at 20° C. with peptide feeding; conditions: N2 worms; for Median Lifespan (Days ± SE): 50 μg peptide with E. coli OP50; for Increase in median survival (%): 50 μg peptide, vs control
Experimental: A schematic of an assay of C. elegans N2 lifespan at 20° C. is shown (FIG. 10A). This involved peptide treatment (50 μg) with E. coli OP50 as a food source. Plates were changed every second day with 50 μg fresh peptide and OP50. Scoring of survival was done every day to the last day of survival. 50 mM FUdR was added in experimental plates between D1 and D5 to prevent progeny production.

C. elegans (N2 strain) = test: Thermotolerance assay, continuous heat stress at 35° C.; conditions: N2 worms
Experimental: The lifespan of wild type C. elegans with and without peptide at a restrictive temperature was measured.
A schematic representation of the thermotolerance assay used is shown (FIG. 11A). 24 hours of 50 μg peptide treatment at 20° C. of a synchronized population of wild type C. elegans was followed by a continuous heat stress at 35° C. Worms were scored every two hours for 24 hours for survival.

CL2006 C. elegans = test: CL2006 lifespan at 20° C. (paralysis and death model); conditions: CL2006 worms, 50 μg peptide
Experimental: CL2006 C. elegans were used as a paralysis and death model. Worms are maintained at 15° C., with adult onset paralysis induced at 20° C.
50 μg CPAMC and CPPRAMC peptide or controls were added to CL2006 worms, and the fraction left alive over time at the restrictive temperature of 20° C. was quantified (FIG. 12). […] (FIG. 12).

CL4176 C. elegans = test: CL4176 Aβ-induced paralysis and survival assay; conditions: CL4176 worms
Experimental: CL4176 C. elegans is a temperature sensitive strain. Worms are maintained at 15° C. and shifted to increased temperature to cause Aβ-induced paralysis in adults. This has been used as a C. elegans model of Alzheimer's disease.
A scheme of a paralysis assay with CL4176 worms is shown (FIG. 13A). Peptide treatment began on CL4176 embryos and continued throughout the experiment. After 2 days at 15° C., the temperature was increased to the restrictive temperature of 25° C. Worms were scored for survival and paralysis.
Example images of paralyzed and non-paralyzed worms are shown (FIG. 13C).

[2] = test system: C. elegans wild-type (N2 strain); test: Paraquat (PQ)-induced oxidative stress survival; conditions: five-day old N2 worms, 50 μg peptide 24 hours, 50 mM PQ
Experimental: Five-day old N2 worms were pretreated with 50 μg peptide for 24 hours and subjected to 50 mM PQ. The survival of the worms was monitored every hour under a microscope until the end of survival. […] The median survival value (50% survival) in CPPRAMC, CPAMC, and CP-SC (control) peptides corresponds to 9.6 h, 8.9 h and 5.9 h, respectively, as compared to vehicle control (5.5 h) (FIG. 14).

C. elegans (N2) worms = test: Juglone (JG)-induced oxidative stress survival; conditions: N2 worms at day 5, 50 μg peptide 24 h, 50 μM JG
Experimental: N2 worms at day 5 pretreated for 24 h with 50 μg CPAMC or CP-SC (control) and subjected to 50 μM JG. Survival was checked every hour under a microscope until the end of survival. The median survival value in CPAMC and CP-SC (control) peptides corresponds to 7.3 h and 5.9 h, respectively, compared to vehicle control (4.9 h) (FIG. 15).

Substance: CH3-VPTLKdlplknvedkfhrsfvesvk-NH2 [CP-cp, reference compound]
- Median Lifespan (Days ± SE) [1]: 13.23 ± 0.20 days
- Increase in median survival (%) [1]: 0%
- % increase in survival (C. elegans (N2 strain); 35° C., 50 μg peptide, vs control): 0%
- Median survival ± SE (hours at 35° C.) (C. elegans (N2 strain); 24 hours 50 μg peptide at 20° C., then 35° C.): 7.4 ± 0.4 h
- Median survival ± SE (days at 20° C.) (CL2006 C. elegans): 7.0 ± 0.28 days
- % increase in survival (CL2006 C. elegans; vs control): 2.0%
- % increase in median survival (CL4176 C. elegans; 25° C., vs control): 0%
- Median survival Hours ± SE (CL4176 C. elegans; 2 days at 15° C., then 25° C.): 44.7 ± 0.4 h
- median survival value (50% survival) [2]: 5.9 h
- median survival value (C. elegans (N2) worms): 5.9 h

Substance: CH3-DFVIFLDVKHFSPEDLTVK-NH2 (Me-DFVIFLDVKHFSPEDLTVK-NH2; SMILES CC[C@H](C)[C@H](NC(=O)[C@@H](NC(=O)[C@H](Cc1ccccc1)NC(=O)[C@H](CC(=O)O)NC)C(C)C)C(=O)N[C@@H](Cc1ccccc1)C(=O)N[C@@H](CC(C)C)C(=O)N[C@@H](CC(=O)O)C(=O)N[C@H](C(=O)N[C@@H](CCCCN)C(=O)N[C@@H](Cc1c[nH]cn1)C(=O)N[C@@H](Cc1ccccc1)C(=O)N[C@@H](CO)C(=O)N1CCC[C@H]1C(=O)N[C@@H](CCC(=O)O)C(=O)N[C@@H](CC(=O)O)C(=O)N[C@@H](CC(C)C)C(=O)N[C@H](C(=O)N[C@H](C(=O)N[C@@H](CCCCN)C(N)=O)C(C)C)[C@@H](C)O)C(C)C) [MC-αA, Parent peptide from αA crystallin]
- Median Lifespan (Days ± SE) [1]: 16.10 ± 0.25 days
- Increase in median survival (%) [1]: 20* %
